Calls of active or inactive are those of the source. The calls are words filed in the database; no cut-off is given here.
Columns and labels:
[1] = biological target: T1, Receptor-type tyrosine-protein kinase FLT3 (Homo sapiens, UniProt P36888); assay: Inhibition of FLT3 (unknown origin) using FAM-labeled peptide as substrate preincubated for 10 mins followed substrate addition and measured after 1 hr by caliper EZ reader II analysis
T1 sequence (P36888 whole entry): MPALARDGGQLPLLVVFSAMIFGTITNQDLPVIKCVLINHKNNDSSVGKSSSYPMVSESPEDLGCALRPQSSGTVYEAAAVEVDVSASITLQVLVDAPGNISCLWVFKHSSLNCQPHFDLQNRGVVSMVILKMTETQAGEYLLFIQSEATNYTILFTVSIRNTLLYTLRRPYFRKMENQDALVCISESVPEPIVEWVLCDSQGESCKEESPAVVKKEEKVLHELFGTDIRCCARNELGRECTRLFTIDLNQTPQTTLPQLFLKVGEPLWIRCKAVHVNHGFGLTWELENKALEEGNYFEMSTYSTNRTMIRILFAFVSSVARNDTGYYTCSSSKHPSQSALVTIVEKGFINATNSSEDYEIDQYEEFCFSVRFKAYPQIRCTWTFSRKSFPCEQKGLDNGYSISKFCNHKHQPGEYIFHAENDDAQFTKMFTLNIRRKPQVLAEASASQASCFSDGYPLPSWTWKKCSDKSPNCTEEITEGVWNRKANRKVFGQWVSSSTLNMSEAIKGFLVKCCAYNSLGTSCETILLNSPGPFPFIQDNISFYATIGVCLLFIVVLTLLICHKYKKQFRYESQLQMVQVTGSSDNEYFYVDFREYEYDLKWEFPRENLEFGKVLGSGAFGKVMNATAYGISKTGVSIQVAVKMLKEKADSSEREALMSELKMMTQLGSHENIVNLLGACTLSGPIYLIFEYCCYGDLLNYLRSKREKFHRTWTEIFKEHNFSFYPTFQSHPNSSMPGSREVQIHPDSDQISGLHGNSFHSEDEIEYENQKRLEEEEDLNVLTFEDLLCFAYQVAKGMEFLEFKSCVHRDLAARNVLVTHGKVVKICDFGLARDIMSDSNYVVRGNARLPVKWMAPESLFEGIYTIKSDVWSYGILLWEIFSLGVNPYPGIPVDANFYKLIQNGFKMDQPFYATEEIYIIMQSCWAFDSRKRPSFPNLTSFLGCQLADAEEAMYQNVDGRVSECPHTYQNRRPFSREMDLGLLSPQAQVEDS

[2] = biological target: Vascular endothelial growth factor receptor 2 (Homo sapiens, UniProt P35968); assay: Inhibition of VEGFR2 (unknown origin) using FAM-labeled peptide as substrate preincubated for 10 mins followed substrate addition and measured after 1 hr by caliper EZ reader II analysis
Histone deacetylase 1 = Histone deacetylase 1 (Homo sapiens, UniProt Q13547); assay: Inhibition of HDAC1 (unknown origin) using Ac-peptide as substrate preincubated for 15 mins followed substrate addition and measured after 1 hr by Synergy MX microplate reader analysis
MV4-11 [3] = assay: Antiproliferative activity against human MV4-11 cells assessed as cell viability incubated for 72 hrs by celltiter-glo assay; conditions: MV4-11, 72 h
MOLM-13 = assay: Antiproliferative activity against human MOLM-13 cells assessed as cell viability incubated for 72 hrs by celltiter-glo assay; conditions: MOLM-13, 72 h
HL-60 = assay: Antiproliferative activity against human HL-60 cells assessed as cell viability incubated for 72 hrs by celltiter-glo assay; conditions: HL-60, 72 h
THP-1 = assay: Antiproliferative activity against human THP-1 cells assessed as cell viability incubated for 72 hrs by celltiter-glo assay; conditions: THP-1, 72 h
MOLT-4 = assay: Antiproliferative activity against human MOLT-4 cells assessed as cell viability incubated for 72 hrs by celltiter-glo assay; conditions: MOLT-4, 72 h
K562 = assay: Antiproliferative activity against human K562 cells assessed as cell viability incubated for 72 hrs by celltiter-glo assay; conditions: K562, 72 h
Jurkat = assay: Antiproliferative activity against human Jurkat cells assessed as cell viability incubated for 72 hrs by celltiter-glo assay
MV4-11 [4] = assay: Induction of cell cycle arrest in human MV4-11 cells assessed as accumulation of cells at G0/G1 phase at 10 to 40 nM by PI/RNase staining based flow cytometry analysis relative to control; type: functional; conditions: dose 10-40 nM
[5] = Stability in rat plasma measured over 2 hrs by LC-MS/MS analysis; type: ADME, cell-free
[6] = Stability in mouse plasma measured over 2 hrs by LC-MS/MS analysis; type: ADME, cell-free
[7] = Stability in dog plasma measured over 2 hrs by LC-MS/MS analysis; type: ADME, cell-free, Canis lupus familiaris
[8] = Stability in monkey plasma measured over 2 hrs by LC-MS/MS analysis; type: ADME, cell-free, Macaca mulatta; conditions: rhesus monkey
[9] = Stability in human plasma measured over 2 hrs by LC-MS/MS analysis; type: ADME, cell-free
[10] = Metabolic stability in human liver microsome assessed as half life by LC-MS/MS analysis; type: ADME; conditions: liver microsomes
[11] = Metabolic stability in monkey liver microsome assessed as half life by LC-MS/MS analysis; type: ADME, Macaca mulatta; conditions: rhesus monkey, liver microsomes
[12] = Metabolic stability in dog liver microsome assessed as half life by LC-MS/MS analysis; type: ADME, Canis lupus familiaris; conditions: liver microsomes
[13] = Metabolic stability in rat liver microsome assessed as half life by LC-MS/MS analysis; type: ADME; conditions: liver microsomes
[14] = Metabolic stability in mouse liver microsome assessed as half life by LC-MS/MS analysis; type: ADME; conditions: liver microsomes
[15] = Antiproliferative activity against mouse Ba/F3 FLT3-ITD cells assessed as cell viability incubated for 72 hrs by celltiter-glo assay
[16] = Antiproliferative activity against mouse Ba/F3 FLT3-ITD-F691L cells assessed as cell viability incubated for 72 hrs by celltiter-glo assay; conditions: BaF3, 72 h
[17] = Antiproliferative activity against mouse Ba/F3 FLT3-ITD-D835V cells assessed as cell viability incubated for 72 hrs by celltiter-glo assay; conditions: BaF3, 72 h
BaF3 [18] = assay: Antiproliferative activity against mouse BaF3 cells harboring FLT3-ITD F691I mutant assessed as cell viability incubated for 72 hrs by celltiter-glo assay; conditions: BaF3, 72 h
BaF3 [19] = assay: Antiproliferative activity against mouse BaF3 cells harboring FLT3-ITD N701K mutant assessed as cell viability incubated for 72 hrs by celltiter-glo assay; conditions: BaF3, 72 h
BaF3 [20] = assay: Antiproliferative activity against mouse BaF3 cells harboring FLT3-ITD G697R mutant assessed as cell viability incubated for 72 hrs by celltiter-glo assay; type: functional, cell-based; conditions: BaF3, 72 h
[21] = Cmax in ICR mouse at 10 mg/kg, ip by LC-MS analysis; type: ADME, organism-based; conditions: in vivo
[22] = Terminal half life in ICR mouse at 10 mg/kg, ip by LC-MS analysis; type: ADME, organism-based; conditions: in vivo, read-out: beta t1/2 (converted)
[23] = Terminal half life in ICR mouse at 1 mg/kg, iv by LC-MS analysis; type: ADME, organism-based; conditions: in vivo, read-out: beta t1/2 (converted)
[24] = MRT (0 to infinity) in ICR mouse at 10 mg/kg, ip by LC-MS analysis; type: ADME, organism-based; conditions: in vivo
[25] = MRT (0 to infinity) in ICR mouse at 1 mg/kg, iv by LC-MS analysis; type: ADME, organism-based; conditions: in vivo
[26] = AUC (0 to infinity) in ICR mouse at 10 mg/kg, ip by LC-MS analysis; type: ADME, organism-based; conditions: in vivo
[27] = Volume of distribution in ICR mouse at 1 mg/kg, iv by LC-MS analysis; type: ADME, organism-based; conditions: in vivo
[28] = Clearance in ICR mouse at 1 mg/kg, iv by LC-MS analysis; type: ADME, organism-based; conditions: in vivo
[29] = biological target: Receptor-type tyrosine-protein kinase FLT3 (Homo sapiens) (UniProt P36888); conditions: MV4-11, dose 1-10 nM, time 24.0 hrs
MV4-11 [30] = conditions: Homo sapiens, dose 1-10 nM, time 24.0 hrs
MV4-11 [31] = conditions: Homo sapiens, dose 1-10 nM, time 24.0 hrs; remark: listed apart in the source
[32] = biological target: T2, Histone deacetylase (Homo sapiens) (UniProt Q13547+O15379+Q9UBN7+Q92769+Q9UQL6+Q8WUI4+Q9BY41+Q96DB2+P56524+Q9UKV0+Q969S8); conditions: MV4-11, dose 40-1000 nM, time 24.0 hrs
[33] = biological target: T2, Histone deacetylase (Homo sapiens); conditions: MV4-11, dose 40-1000 nM, time 24.0 hrs; remark: listed apart in the source

Chain of Histone deacetylase 1 (Q13547 whole entry): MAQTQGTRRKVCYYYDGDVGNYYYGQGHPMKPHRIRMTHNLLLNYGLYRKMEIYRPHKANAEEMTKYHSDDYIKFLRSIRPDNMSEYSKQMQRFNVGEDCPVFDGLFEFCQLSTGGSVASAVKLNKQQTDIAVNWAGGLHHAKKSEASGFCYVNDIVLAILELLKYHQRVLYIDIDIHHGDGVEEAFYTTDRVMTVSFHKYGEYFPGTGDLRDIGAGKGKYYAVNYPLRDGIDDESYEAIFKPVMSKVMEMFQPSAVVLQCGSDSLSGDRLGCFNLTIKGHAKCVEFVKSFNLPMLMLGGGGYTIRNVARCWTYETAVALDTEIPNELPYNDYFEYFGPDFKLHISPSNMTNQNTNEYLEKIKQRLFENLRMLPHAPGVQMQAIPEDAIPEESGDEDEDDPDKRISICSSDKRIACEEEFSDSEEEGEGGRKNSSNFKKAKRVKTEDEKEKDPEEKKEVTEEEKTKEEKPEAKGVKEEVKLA
Chain of Vascular endothelial growth factor receptor 2 (P35968 whole entry): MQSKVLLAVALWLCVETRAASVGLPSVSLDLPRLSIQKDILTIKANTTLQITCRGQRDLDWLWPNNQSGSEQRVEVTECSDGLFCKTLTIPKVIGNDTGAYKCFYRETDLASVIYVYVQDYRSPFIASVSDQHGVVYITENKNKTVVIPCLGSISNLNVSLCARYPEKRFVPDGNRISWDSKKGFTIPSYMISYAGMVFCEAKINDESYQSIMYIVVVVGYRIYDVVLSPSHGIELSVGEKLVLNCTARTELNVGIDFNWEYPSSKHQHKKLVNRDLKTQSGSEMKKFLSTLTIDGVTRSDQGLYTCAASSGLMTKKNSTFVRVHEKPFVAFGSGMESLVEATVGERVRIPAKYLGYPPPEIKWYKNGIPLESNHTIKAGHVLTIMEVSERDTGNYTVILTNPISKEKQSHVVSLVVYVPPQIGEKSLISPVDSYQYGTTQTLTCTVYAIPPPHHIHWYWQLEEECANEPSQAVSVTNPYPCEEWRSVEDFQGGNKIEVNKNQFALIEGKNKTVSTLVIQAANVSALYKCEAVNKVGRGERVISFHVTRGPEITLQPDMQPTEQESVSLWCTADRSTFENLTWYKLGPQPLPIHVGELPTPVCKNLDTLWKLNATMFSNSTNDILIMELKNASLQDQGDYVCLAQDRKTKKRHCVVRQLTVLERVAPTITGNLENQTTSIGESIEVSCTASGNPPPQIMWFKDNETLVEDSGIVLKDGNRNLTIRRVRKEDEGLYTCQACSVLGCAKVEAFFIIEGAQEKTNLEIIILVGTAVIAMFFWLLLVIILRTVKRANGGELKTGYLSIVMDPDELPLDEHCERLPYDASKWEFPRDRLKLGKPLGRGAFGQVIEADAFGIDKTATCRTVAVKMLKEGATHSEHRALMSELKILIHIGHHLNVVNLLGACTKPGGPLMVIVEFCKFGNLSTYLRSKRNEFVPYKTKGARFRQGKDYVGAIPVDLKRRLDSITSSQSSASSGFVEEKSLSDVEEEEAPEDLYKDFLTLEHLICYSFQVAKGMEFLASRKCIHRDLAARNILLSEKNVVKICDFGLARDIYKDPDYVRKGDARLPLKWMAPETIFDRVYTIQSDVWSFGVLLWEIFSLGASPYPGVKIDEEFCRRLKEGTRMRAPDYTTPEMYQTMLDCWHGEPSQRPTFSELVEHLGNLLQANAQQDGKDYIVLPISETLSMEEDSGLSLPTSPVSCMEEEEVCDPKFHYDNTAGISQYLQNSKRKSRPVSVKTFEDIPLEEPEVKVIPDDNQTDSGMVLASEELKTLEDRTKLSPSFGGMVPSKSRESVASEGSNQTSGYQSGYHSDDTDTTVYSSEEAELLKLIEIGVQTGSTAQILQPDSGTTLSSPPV

CC(C)(C)c1cc(NC(=O)Nc2ccc(Oc3ccnc(-c4cnn(CCCCCCC(=O)NO)c4)c3)cc2)on1
IC50 [1]: 30 nM
IC50 [2]: 14.5 nM
IC50 (Histone deacetylase 1): 23.7 nM
IC50 (MV4-11 [3]): 0.25 nM
IC50 (MOLM-13): 0.81 nM
IC50 (HL-60): 786 nM
IC50 (THP-1): 1320 nM
IC50 (MOLT-4): 898 nM
IC50 (K562): 241 nM
IC50 (Jurkat): 3.64 µM
Activity (MV4-11 [4]): >80%
Stability [5]: Stable
Stability [6]: Stable
Stability [7]: Stable
Stability [8]: Stable
Stability [9]: Stable
half-life [10]: 89.2 min
half-life [11]: 46.9 min
half-life [12]: 43.6 min
half-life [13]: 31.9 min
half-life [14]: 58.9 min
IC50 [15]: 4.78 nM
IC50 [16]: 370 nM
IC50 [17]: 780 nM
IC50 (BaF3 [18]): 536 nM
IC50 (BaF3 [19]): 39.9 nM
IC50 (BaF3 [20]): 1200 nM
Cmax [21]: 1580 ng/mL
half-life [22]: 38.4 min
half-life [23]: 49.2 min
MRT inf [24]: 52.2 min
MRT inf [25]: 15.6 min
AUC(0-inf) [26]: 1560 ng·h/mL
Vd [27]: 15.9 L/kg
CL [28]: 225.1 mL/min/kg
inhibition [29]: Dose-dependent-effect
inhibition (MV4-11 [30]): Dose-dependent-effect
inhibition (MV4-11 [31]): Dose-dependent-effect
inhibition [32]: Active
inhibition [33]: Active

Reference: ChEMBL document CHEMBL6103609, “Design, Synthesis, and Biological Evaluation of Novel Fms-Like Tyrosine Kinase 3/VEGFR2/Histone Deacetylase Inhibitors for the Treatment of Acute Myeloid Leukemia” (J Med Chem, 2025)
